Test results published in paper PMC9964651, “Discovery of Ureido-Based Apcin Analogues as Cdc20-specific Inhibitors against Cancer” (Pharmaceuticals, 2023).
Read-outs that look alike come from different tables or passages of the source.

Key:
Hela = assay: In vitro antiproliferative assay (CCK-8); assay type: cell-based, human; conditions: CCK-8, 48 h, mean ± SD
Source text: The experiment was repeated three times.

Mda-mb-231 = assay: In vitro antiproliferative assay (CCK-8); conditions: read-out: IC50 ± SD Mda-mb-231
Method: (§1) Hela and MDA-MB-132 cells were grown in DMEM (Gibco) containing 10% FBS and 1% double antibody (penicillin 100 U/mL, streptomycin 100 μg/mL, Solarbio). […] All cell lines were purchased from the Xiangya Cell Bank, Central South University, Changsha, China, and incubated at 37 °C with 5% CO2 in a humidified atmosphere. […] Cytotoxicity assay was assessed using CCK-8 methods. The cells were seeded in a 96-well plate (2 × 10^3–3 × 10^3 cells/well), the 96-well plate was incubated at 37 °C with 5% CO2 in a humidified atmosphere, and the cells were grown in a monolayer; the original culture was discarded. A total of 100 μL of drug-containing medium with a specific concentration gradient was added and then cultivated for 48 h; 10 μL/well of CCK-8 solution was added, put in an incubator, and incubated for 1 h and read with a multi-function microplate reader at a wavelength of 450 nm. The inhibition rate was calculated, and the IC50 results were calculated by GraphPad Prism 7 software. The experiment was repeated three times.

Mcf-7 = assay: In vitro antiproliferative assay (CCK-8); conditions: read-out: IC50 ± SD Mcf-7
Method: as §1

Hepg2 = assay: In vitro antiproliferative assay (CCK-8); conditions: read-out: IC50 ± SD Hepg2
Method: as §1

four cancer-cell lines = assay: In vitro antiproliferative assay (CCK-8), cell line not given; conditions: Homo sapiens, read-out: IC50 (antiproliferative activity)

Row | IC50 (Hela; Homo sapiens, HeLa) [µM] | IC50 (Mda-mb-231; Homo sapiens, MDA-MB-231, 48 h) [µM] | IC50 (Mcf-7; Homo sapiens, MCF7, 48 h) [µM] | IC50 (Hepg2; Homo sapiens, HepG2, 48 h) [µM] | IC50 (four cancer-cell lines) [µM] | IC50 (Hela) [µM] | IC50 (Mda-mb-231; CCK-8, 48 h, mean ± SD) [µM] | IC50 (Mcf-7; CCK-8, 48 h, mean ± SD) [µM] | IC50 (Hepg2; CCK-8, 48 h, mean ± SD) [µM] | Compound
1 | > 100 | > 100 | > 100 | > 100 | > 80 |  |  |  |  | O=C(NCCN1CCOCC1)NC(Nc1ncccn1)C(Cl)(Cl)Cl (centres unmarked) [Compound 4, 1-(2-morpholinoethyl)-3-(2,2,2-trichloro-1-(pyrimidin-2ylamino)ethyl)urea]
2 | > 100 | > 100 | > 100 | > 100 |  |  |  |  |  | CCCNC(=O)NC(Nc1ncc([N+](=O)[O-])cn1)C(Cl)(Cl)Cl (centres unmarked) [Compound 13, 1-propyl-3-(2,2,2-trichloro-1-((5-nitropyrimidin-2-yl)amino)ethyl)urea]
3 | 44.7 ± 4.6 | 61.6 ± 11.1 | 44.8 ± 8.78 | 32.8 ± 3.94 |  |  |  |  |  | Nc1cc(Cl)nc(NC(NC(=O)NCCc2ccccc2)C(Cl)(Cl)Cl)n1 (centres unmarked) [Compound 26, 1-(1-((4-amino-6-chloropyrimidin-2-yl)amino)-2,2,2-trichloroe-thyl)-3-phenethylurea]
4 | > 100 | > 100 | > 100 | > 100 | > 80 |  |  |  |  | O=C(NC1CCCCC1)NC(Nc1ncccn1)C(Cl)(Cl)Cl (centres unmarked) [Compound 3, 1-cyclohexyl-3-(2,2,2-trichloro-1-(pyrimidin-2-ylamino)ethyl)urea]
5 |  |  |  |  |  | 60 ± 7.55 | 25.2 ± 10.8 | > 100 | > 100 | 1-phenethyl-3-(2,2,2-trichloro-1-((2,6-dichloropyrimidin-4-yl)amino)ethyl)urea [Compound 17]
6 | > 100 | > 100 | > 100 | > 100 |  |  |  |  |  | O=C(NCCc1ccccc1)NC(Nc1ncc(Cl)cn1)C(Cl)(Cl)Cl (centres unmarked) [Compound 9, 1-phenethyl-3-(2,2,2-trichloro-1-((5-chloropyrimidin-2-yl)amino)ethyl)urea]
7 | > 100 | > 100 | > 100 | > 100 |  |  |  |  |  | Cc1c(Cl)nc(NC(NC(=O)NS(=O)(=O)c2ccccc2)C(Cl)(Cl)Cl)nc1Cl (centres unmarked) [Compound 11, N-((2,2,2-trichloro-1-((4,6-dichloro-5-methylpyrimidin-2yl)amino)ethyl)carbamoyl)benzenesulfonamide]
8 | 86.7 ± 4.25 | > 100 | 79.3 ± 20.3 | 66.3 ± 1.91 |  |  |  |  |  | O=C(NCCc1ccccc1)NC(Nc1ncccn1)C(Cl)(Cl)Cl (centres unmarked) [Compound 2, 1-phenethyl-3-(2,2,2-trichloro-1-(pyrimidin-2-ylamino)ethyl)urea]

More lines, now with the values behind:

Row | Compound | IC50 (Hela; Homo sapiens, HeLa) [µM] | IC50 (Mda-mb-231; Homo sapiens, MDA-MB-231, 48 h) [µM] | IC50 (Mcf-7; Homo sapiens, MCF7, 48 h) [µM] | IC50 (Hepg2; Homo sapiens, HepG2, 48 h) [µM] | IC50 (four cancer-cell lines) [µM] | IC50 (Hela) [µM] | IC50 (Mda-mb-231; CCK-8, 48 h, mean ± SD) [µM] | IC50 (Mcf-7; CCK-8, 48 h, mean ± SD) [µM] | IC50 (Hepg2; CCK-8, 48 h, mean ± SD) [µM]
9 | O=C(NCCc1ccccc1)NC(Nc1ncc(F)cn1)C(Cl)(Cl)Cl (centres unmarked) [Compound 16, 1-phenethyl-3-(2,2,2-trichloro-1-((5-fluoropyrimidin-2-yl)amin-no)ethyl)urea] | > 100 | > 100 | > 100 | > 100 |  |  |  |  | 
10 | O=C(NC(Nc1ncc(Cl)cn1)C(Cl)(Cl)Cl)NS(=O)(=O)c1ccccc1 (centres unmarked) [Compound 10, N-((2,2,2-trichloro-1-((5-chloropyrimidin-2yl)amino)ethyl)carbamoyl)benzenesul fonamide] | > 100 | > 100 | > 100 | > 100 |  |  |  |  | 
11 | O=C(NC(Nc1ncccn1)C(Cl)(Cl)Cl)NS(=O)(=O)c1ccccc1 (centres unmarked) [Compound 6, N-((2,2,2-trichloro-1-(pyrimidin-2-ylamino)ethyl)carbamoyl)benzenesulfonamide] | > 100 | > 100 | > 100 | > 100 | > 80 |  |  |  | 
12 | Nc1c(Cl)nc(NC(NC(=O)OCCc2ccccc2)C(Cl)(Cl)Cl)nc1Cl (centres unmarked) [Compound 19, Phenethyl(1-((5-amino-4,6-dichloropyrimidin-2-yl)amino)-2,2,2-trichloroethyl)carbamate] | 34.04 ± 0.02 | 68.9 ± 2.67 | 23.5 ± 4.17 | 27.8 ± 1.85 |  |  |  |  | 
13 | COC(=O)c1cnc(NC(NC(=O)NCCc2ccccc2)C(Cl)(Cl)Cl)nc1C (centres unmarked) [Compound 24, Methyl-4-methyl-2-((2,2,2-trichloro-1-(3-phenethylureido)eth-yl)amino)pyrimidine-5-carboxylate] | > 100 | 58.6 ± 18.4 | 29.2 ± 3.46 | 32.4 ± 5 |  |  |  |  | 
14 | Cc1c(Cl)nc(NC(NC(=O)NCCc2ccccc2)C(Cl)(Cl)Cl)nc1Cl (centres unmarked) [Compound 12, 1-phenethyl-3-(2,2,2-trichloro-1-((4,6-dichloro-5-methylpyrimidin-2-yl)amino)ethyl)urea] | 43.5 ± 20.4 | > 100 | 27.7 ± 2.13 | 27.1 ± 5.27 |  |  |  |  | 
